Molecules are shown by their SMILES. Where two headings read alike, the source gives them in different places.

One data set has as its system normal rat. In words: Blood erythropoietin concentration increasing action. The format is in vivo. The conditions noted are these: single oral administration.
The target in another data set is CYP2C9 (Homo sapiens, UniProt P11712). Briefly: Enzyme inhibition (in vitro). The format is in vitro ADME.
Another data set has as its target T1, CYP2C8 (Homo sapiens, UniProt P10632).
T1 sequence (P10632 1-490): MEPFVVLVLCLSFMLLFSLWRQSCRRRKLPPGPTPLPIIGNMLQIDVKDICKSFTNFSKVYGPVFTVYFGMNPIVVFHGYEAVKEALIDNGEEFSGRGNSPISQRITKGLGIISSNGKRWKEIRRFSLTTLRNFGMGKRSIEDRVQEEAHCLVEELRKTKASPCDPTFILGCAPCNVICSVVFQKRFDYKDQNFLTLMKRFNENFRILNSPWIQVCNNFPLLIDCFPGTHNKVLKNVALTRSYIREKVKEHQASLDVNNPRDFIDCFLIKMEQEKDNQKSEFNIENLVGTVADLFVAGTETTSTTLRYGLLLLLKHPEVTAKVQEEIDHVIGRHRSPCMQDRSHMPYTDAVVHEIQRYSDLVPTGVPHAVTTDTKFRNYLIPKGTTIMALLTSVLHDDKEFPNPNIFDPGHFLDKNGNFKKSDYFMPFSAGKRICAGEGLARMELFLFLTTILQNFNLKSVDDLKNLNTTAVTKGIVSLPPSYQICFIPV
In words: Enzyme inhibition (in vitro). The format is in vitro ADME.

Data set [1] is described as follows: [14C]-labeled Compound 1 metabolism and excretion study in healthy adult males. The format is in vivo, human. An excerpt: The urinary excretion rate of this drug and acyl glucuronide is less than 1% of the total radioactivity.
A short description of data set [2]: Plasma pharmacokinetics, repeated once-daily administration to healthy adult men. The format is in vivo, human. The conditions noted are these: first day of administration.
Data set [3] can be described thus: Phase III clinical trial in patients with hemodialysis anemia. The format is in vivo, human. The protocol:
The incidence of adverse reactions when this drug was administered up to 24 weeks was 8.3% (2/24 cases).

For data set [4], the system named is UGT1A1, UGT1A7, UGT1A8 and UGT1A9. In words: UGT isoforms generating the O-glucuronide (in vitro). The format is in vitro ADME, human.
The nature of data set [5]: Phase I drug-drug interaction study with probenecid (Part 1, Arm 2). The format is in vivo, human. The conditions noted are these: for AUC(0-inf) / AUC(0-t) / Cmax: both sexes, human, plasma, fasted. The protocol:
A phase I, open-label, 2-part study was conducted in healthy male and female subjects to evaluate the potential for interaction of cyclosporine (Part 1, Arm 1), probenecid (Part 1, Arm 2), and rifampin (Part 2) with vadadustat.
On the morning of Day 1, subjects received a single oral dose of vadadustat (300 mg) as 2×150 mg tablets after at least a 10-hour overnight fast and remained fasted for at least 4 hours post-dose. Following a 2-day washout (Days 1 to 2), subjects received 1 oral probenecid 500 mg tablet Q12 h for 4 days (Days 3 to 6). On days that probenecid was administered alone (Days 3, 4, and 6), probenecid was administered in a fasted state 1 hour prior to a standard breakfast and 1 hour prior to an evening meal or snack. On Day 5, probenecid was co-administered with a single dose of vadadustat (300 mg as 2×150 mg tablets) following at least a 10-hour fast. Subjects remained fasted for at least 4 hours after dosing.
On days vadadustat was administered (Day 1 and Day 5), blood samples for PK analysis were collected up to 48 hours postdose. In addition, on vadadustat dosing days, pooled urine samples were collected up to 24 hours post-dose. Subjects were discharged from the CRU on the morning of Day 7, after the final 48-hour post-dose PK sample had been collected. A follow-up phone call was conducted 30 days±2 days after the final dose.

For a further data set, the target named is T2, CYP2B6 (Homo sapiens, UniProt P20813).
T2 sequence (P20813 1-491): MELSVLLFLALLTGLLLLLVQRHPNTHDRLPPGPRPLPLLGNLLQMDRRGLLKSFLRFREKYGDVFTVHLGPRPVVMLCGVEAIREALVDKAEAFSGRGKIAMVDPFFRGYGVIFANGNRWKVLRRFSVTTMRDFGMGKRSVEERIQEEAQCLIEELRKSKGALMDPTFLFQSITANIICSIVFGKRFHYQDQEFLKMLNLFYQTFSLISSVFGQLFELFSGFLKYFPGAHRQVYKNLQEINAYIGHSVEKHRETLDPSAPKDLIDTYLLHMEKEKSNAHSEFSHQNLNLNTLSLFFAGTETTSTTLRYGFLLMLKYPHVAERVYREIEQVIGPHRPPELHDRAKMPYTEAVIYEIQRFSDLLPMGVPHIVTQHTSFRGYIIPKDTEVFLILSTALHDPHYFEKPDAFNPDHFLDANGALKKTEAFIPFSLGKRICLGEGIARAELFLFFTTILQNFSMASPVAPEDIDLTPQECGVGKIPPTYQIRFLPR
Briefly: Enzyme inhibition (in vitro). The format is in vitro ADME.

In another data set the target is T3, UGT1A1 (Homo sapiens, UniProt P22309).
T3 sequence (P22309 26-533): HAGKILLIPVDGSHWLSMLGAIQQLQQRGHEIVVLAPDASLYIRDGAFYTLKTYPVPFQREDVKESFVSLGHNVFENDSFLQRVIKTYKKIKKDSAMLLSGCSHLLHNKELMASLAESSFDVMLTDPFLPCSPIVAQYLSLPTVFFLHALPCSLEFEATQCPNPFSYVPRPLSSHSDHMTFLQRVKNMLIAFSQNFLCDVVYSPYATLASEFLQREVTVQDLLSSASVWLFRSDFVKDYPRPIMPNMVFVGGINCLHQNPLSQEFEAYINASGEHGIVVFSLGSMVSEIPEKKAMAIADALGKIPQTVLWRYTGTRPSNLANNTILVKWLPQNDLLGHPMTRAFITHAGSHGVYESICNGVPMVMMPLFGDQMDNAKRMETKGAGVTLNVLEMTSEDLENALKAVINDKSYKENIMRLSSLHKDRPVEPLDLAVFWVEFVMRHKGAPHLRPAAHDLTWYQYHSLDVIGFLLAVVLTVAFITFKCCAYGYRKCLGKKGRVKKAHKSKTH
In words: Enzyme inhibition (in vitro). The format is in vitro ADME.

For the next data set, the system named is normal rats. Briefly: Hemoglobin concentration and red blood cell count after repeated dosing. The conditions noted are these: repeated oral administration for 14 days. The format is in vivo, rat.

Sequence of CYP2C9 (P11712 whole entry): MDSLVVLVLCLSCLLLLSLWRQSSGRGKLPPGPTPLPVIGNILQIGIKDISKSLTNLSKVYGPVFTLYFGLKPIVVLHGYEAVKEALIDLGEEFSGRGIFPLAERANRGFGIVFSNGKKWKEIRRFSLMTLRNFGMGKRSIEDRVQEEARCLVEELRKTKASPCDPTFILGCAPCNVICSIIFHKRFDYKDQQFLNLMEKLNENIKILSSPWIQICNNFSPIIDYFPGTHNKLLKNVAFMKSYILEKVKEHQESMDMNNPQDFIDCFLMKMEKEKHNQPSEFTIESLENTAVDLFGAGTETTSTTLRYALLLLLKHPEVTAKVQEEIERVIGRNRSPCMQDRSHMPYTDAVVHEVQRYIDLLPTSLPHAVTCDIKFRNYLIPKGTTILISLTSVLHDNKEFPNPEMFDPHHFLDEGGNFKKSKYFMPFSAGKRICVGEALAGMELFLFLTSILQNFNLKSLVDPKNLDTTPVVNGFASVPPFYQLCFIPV

What is called Tmax is the time at which the peak concentration occurs. One may read the Cmax as the highest concentration seen after dosing. For the molecule `O=C(O)CNC(=O)c1ncc(-c2cccc(Cl)c2)cc1O` [Compound 1, {[5-(3-chlorophenyl)-3-hydroxypyridine-2-carbonyl]amino}acetic acid], in the data set with normal rat, the blood erythropoietin levels result is reported as “elevated blood erythropoietin levels”. In addition, the “inhibitory effect on CYP2C9” value on CYP2C9 is given as “inhibitory effect”. At CYP2C8, the “inhibitory effect on CYP2C8” value is listed as “inhibitory effect”. Further, the “share of the total radioactivity (AUC0-∞) in plasma” value in data set [1] (healthy adult male (6), single oral 650 mg [14C]-labeled Compound 1) is on record as 75%. Besides, in data set [1] (single dose 650 mg [14C]-labeled, by 72 hours after administration), the “total radioactivity administered recovered in urine” value was determined as 58.9%. Also, the Tmax in [2] (300 mg once a day) was found to be 1.95 h; in data set [2] (600 mg once a day), 1.98 h. The t1/2 in data set [2] (300 mg once a day) was determined as 6.14 ± 0.763 h. Further, in data set [3] (administered up to 24 weeks (2/24 cases)), the “incidence of adverse reactions” value came out at 8.3%. Also, the “hemoglobin level before administration” value in [3] (baseline, 23 people, mean ± standard deviation) is 9.30 ± 0.67. Further, the “UGT isoforms involved in the generation of the O-glucuronide” value in data set [4] was “UGT1A1, UGT1A7, UGT1A8 and UGT1A9”. Further, the AUC(0-inf) turned out to be 427 µg·h/mL in data set [5] (oral, vadadustat 300 mg single dose + probenecid 500 mg Q12h (multiple doses), read-out: AUCinf, geometric LSM, Treatment V + P) and 234 µg·h/mL in [5] (vadadustat 300 mg alone, single oral dose, read-out: AUCinf, geometric LSM, Treatment V). In addition, the AUC(0-t) amounted to 417 µg·h/mL in [5] (oral, vadadustat 300 mg single dose + probenecid 500 mg Q12h (multiple doses), read-out: AUClast, geometric LSM, Treatment V + P) and 233 µg·h/mL in data set [5] (vadadustat 300 mg alone, single oral dose, read-out: AUClast, geometric LSM, Treatment V). The Cmax came out at 48800 ng/mL in data set [5] (oral, vadadustat 300 mg single dose + probenecid 500 mg Q12h (multiple doses), read-out: Cmax, geometric LSM, Treatment V + P) and 47500 ng/mL in data set [5] (vadadustat 300 mg alone, single oral dose, read-out: Cmax, geometric LSM, Treatment V). In [5] (during treatment with probenecid, healthy subjects), the tolerability result is “tolerated”. In data set [5] (in combination with probenecid), the “change of Cmax values” is “relatively unchanged”. The urinary excretion entry in [5] (in combination with probenecid) is “decreased”. The “inhibitory effect on CYP2B6” value against CYP2B6 was “inhibitory effect”. Besides, at UGT1A1, the “inhibitory effect on UGT1A1” value is “inhibitory effect”. Besides, the hemoglobin concentration result with normal rats is listed as “increasing”. Also, the “red blood cell count” value in the data set with normal rats is given as “increasing”.

For the origin of these results see patent publication US20240148707A1, “MODULATION OF DRUG-DRUG INTERACTIONS OF VADADUSTAT” (Akebia Therapeutics, Inc., priority 2021, published 2024).
